Laboratory results reported in patent US11299485B2, “Thiophene derivative and use thereof” (FUJIMOTO CO., LTD., priority 2018, dated 2022).
Marks after values point to notes of the source that are not given here.

Experiments:
Assay type in all cases: cell-based
Pfeiffer cells = test: Human diffuse large B-cell lymphoma cell line Pfeiffer proliferation suppression test; details: 144 h, compound 10 μM, 3 days + re-plating with compound 3 days, WST-8, read-out: cell survival rate (% of control) Pfeiffer
Source text: Example 52: Human Diffuse Large B-Cell Lymphoma Cell Line Pfeiffer Proliferation Suppression Test
Pfeiffer cells (ATCC, CRL-2632) were suspended in medium B, and diluted as appropriate with 0.4% trypan blue solution (Sigma-Aldrich Co. LLC.). The number of viable cells was counted with a hemocytometer (Funakoshi Co., Ltd.). A cell suspension obtained by diluting with medium B such that the value obtained was 1.3×10^5 cells/mL was dispensed into a Falcon 96 well flat bottom plate (Corning Incorporated) at 75 μL/well, and culture was started at 37° C. under 5% CO2 stream. The next day, a solution obtained by diluting 4 mM DMSO solution of the test compound 100-fold with medium B was added by 25 μL to each well (final concentration of test compound 10 μM). 25 μL of a solution obtained by diluting DMSO 100-fold with medium B was added to the control well. After culturing at 37° C. in a 5% CO2 stream for 3 days, the cell culture medium was uniformly suspended with a multi channel pipette, 14 μL per well was transferred into another new Falcon 96 well flat bottom plate. A solution obtained by diluting 4 mM DMSO solution of the same test compound as the first time 400-fold with medium B was added by 86 μL to a total amount of 100 μL (final concentration of test compound 10 μM). After culturing at 37° C. in a 5% CO2 stream for 3 days, the cell proliferation activity was measured according to the instruction manual attached to WST-8 Kit (KISHIDA CHEMICAL Co., Ltd.).

[1] = tested on: human peripheral blood mononuclear cells (PBMC); test: Cytotoxicity test using human peripheral blood mononuclear cells (PBMC); details: LPS, 24 hr
Procedure: Example 56: Cytotoxicity Test Using Human Peripheral Blood Mononuclear Cells (PBMC)
Peripheral blood of a healthy adult was collected in a Venoject II vacuum blood collection tube (Terumo, containing EDTA/2Na), and then diluted two-fold with an equal volume of OTSUKA NORMAL SALINE (Otsuka Pharmaceutical Co., Ltd.). The diluted blood was mixed with Lymphoprep (AXIS-SHIELD) in half the volume of the diluted blood, dispensed into a 15 mL conical tube, and centrifuged at room temperature for 20 min (2,100 rpm). The mononuclear cells accumulated at the interface between Lymphoprep and plasma was transferred to a 50 mL conical tube, diluted with OTSUKA NORMAL SALINE, and the mononuclear cells suspension was centrifuged at room temperature for 10 min (1,150 rpm) and then the supernatant was removed. The mononuclear cells fraction obtained as a precipitate was suspended in an appropriate amount of medium A, and diluted as appropriate with 0.4% trypan blue solution (Sigma-Aldrich Co. LLC.). The number of viable cells was counted with a hemocytometer (ERMA INC.). It was diluted with medium A such that the value obtained was 5×10^5 cells/mL. On the other hand, 37.5 μL of medium A, 2.5 μL of 0.4 mg/mL test compound solution (DMSO solution 10-fold diluted with medium A), and 10 μL of 10 μg/mL lipopolysaccharide (Sigma-Aldrich Co. LLC.) solution (diluted with medium A) were each added in advance to the same well of a Falcon 96-well flat bottom plate (Corning Incorporated), and the above-mentioned cell suspension was dispensed at 50 μL/well (final concentration of test compound 10 μg/mL). 2.5 μL of DMSO diluted 10-fold with medium A was added to the control well instead of the compound solution. After culturing at 37° C. in a 5% CO2 stream for 24 hr, the cell survival rate was measured using WST-1 (DOJINDO LABORATORIES) or WST-8 kit (KISHIDA CHEMICAL Co., Ltd.) and according to each instruction manual attached thereto.

MM.1S cells = test: Human myeloma cell line MM.1S proliferation suppression test; details: MM1.S, 72 h, compound 10 μM, 3 days, WST-1 or WST-8, read-out: cell survival rate (% of control) MM.1S
Procedure: Example 51: Human Myeloma Cell Line MM.1S Proliferation Suppression Test
MM.1S cells (ATCC, CRL-2974) were suspended in 10% fetal calf serum (Thermo Fisher Scientific)-containing RPMI1640 medium (ATCC, hereinafter abbreviated as medium B), and diluted as appropriate with 0.4% trypan blue solution (Sigma-Aldrich Co. LLC.). The number of viable cells was counted with a hemocytometer (ERMA INC.). It was diluted with medium B such that the value obtained was 2×10^5 cells/mL. On the other hand, 50 μL of a solution obtained by diluting 4 mM DMSO solution of the test compound 200-fold with medium B was added to each well of a Falcon 96-well flat bottom plate (Corning Incorporated), and the above-mentioned cell suspension was dispensed at 50 μL/well (final concentration of test compound 10 μM). 50 μL of a solution obtained by diluting DMSO 200-fold with medium B was added to the control well. After culturing at 37° C. in a 5% CO2 stream for 3 days, the cell proliferation activity was measured using WST-1 (DOJINDO LABORATORIES) or WST-8 Kit (KISHIDA CHEMICAL Co., Ltd.) and according to each instruction manual attached thereto.

[2] = compound 10 μg/mL, WST-1 or WST-8

SMILES | viability at 10 µM (Pfeiffer cells) [%] | cell survival rate (% of control) PBMC [1, 2] | viability at 10 µM (MM.1S cells) [%] | cell survival rate (% of control) PBMC ([1]; 3 μg/mL due to precipitation of compound in medium)
COc1c(-c2cn(C3CCC(=O)NC3=O)nn2)csc1Br (stereo not drawn) [compound 23, 3-[4-(5-bromo-4-methoxythiophen-3-yl)-1H-1,2,3-triazol-1-yl]piperidine-2,6-dione] | 97 | 104 % of control | 75 | 
CCOc1cc(-c2cn(C3CCC(=O)NC3=O)nn2)cs1 (stereo not drawn) [compound 24, 3-[4-(5-ethoxythiophen-3-yl)-1H-1,2,3-triazol-1-yl]piperidine-2,6-dione] | 91 | 91 % of control | 63 | 
CCCCOc1cscc1-c1cn(C2CCC(=O)NC2=O)nn1 (stereo not drawn) [compound 25, 3-[4-(4-butoxythiophen-3-yl)-1H-1,2,3-triazol-1-yl]piperidine-2,6-dione] | 84 | 118 % of control | 69 | 
CC(C)Oc1cscc1-c1cn(C2CCC(=O)NC2=O)nn1 (stereo not drawn) [compound 26, 3-[4-(4-isopropoxythiophen-3-yl)-1H-1,2,3-triazol-1-yl]piperidine-2,6-dione] | 82 | 42 % of control | 40 | 
O=C1CCC(n2cc(-c3cscc3OC3CCCC3)nn2)C(=O)N1 (stereo not drawn) [compound 27, 3-{4-[4-(cyclopentyloxy)thiophen-3-yl]-1H-1,2,3-triazol-1-yl}piperidine-2,6-dione] | 98 | 107 % of control | 82 | 
O=C1CCC(n2cc(-c3cscc3OCC3CC3)nn2)C(=O)N1 (stereo not drawn) [compound 28, 3-{4-[4-(cyclopropylmethoxy)thiophen-3-yl]-1H-1,2,3-triazol-1-yl}piperidine-2,6-dione] | 91 | 89 % of control | 68 | 
O=C1CCC(n2cc(-c3cscc3OCC3CCCC3)nn2)C(=O)N1 (stereo not drawn) [compound 29, 3-{4-[4-(cyclopentylmethoxy)thiophen-3-yl]-1H-1,2,3-triazol-1-yl}piperidine-2,6-dione] | 110 | 104 % of control | 89 | 
O=C1CCC(n2cc(-c3cscc3OCC3CCCCC3)nn2)C(=O)N1 (stereo not drawn) [compound 30, 3-{4-[4-(cyclohexylmethoxy)thiophen-3-yl]-1H-1,2,3-triazol-1-yl}piperidine-2,6-dione] | 99 | 70 % of control | 59 | 
COc1ccc(COc2cscc2-c2cn(C3CCC(=O)NC3=O)nn2)cc1 (stereo not drawn) [compound 31, 3-{4-[4-(4-methoxybenzyloxy)thiophen-3-yl]-1H-1,2,3-triazol-1-yl}piperidine-2,6-dione] | 82 |  | 27 | 106** % of control
O=C1CCC(n2cc(-c3cscc3OCc3ccccc3)nn2)C(=O)N1 (stereo not drawn) [compound 32, 3-{4-[4-(benzyloxy)thiophen-3-yl]-1H-1,2,3-triazol-1-yl}piperidine-2,6-dione] | 60 | 66 % of control | 27 | 
O=C1CCC(n2cc(-c3cscc3OCc3ccncc3)nn2)C(=O)N1 (stereo not drawn) [compound 33, 3-{4-[4-(pyridin-4-ylmethoxy)thiophen-3-yl]-1H-1,2,3-triazol-1-yl}piperidine-2,6-dione] | 71 | 78 % of control | 49 | 
O=C1CCC(n2cc(-c3cscc3OCc3ccccn3)nn2)C(=O)N1 (stereo not drawn) [compound 34, 3-{4-[4-(pyridin-2-ylmethoxy)thiophen-3-yl]-1H-1,2,3-triazol-1-yl}piperidine-2,6-dione] | 104 | 95 % of control | 50 | 
O=C1CCC(n2cc(-c3cscc3OCc3cccnc3)nn2)C(=O)N1 (stereo not drawn) [compound 35, 3-{4-[4-(pyridin-3-ylmethoxy)thiophen-3-yl]-1H-1,2,3-triazol-1-yl}piperidine-2,6-dione] | 104 | 100 % of control | 55 | 
O=C1CCC(n2cc(-c3cscc3OCc3ccc(CN4CCOCC4)cc3)nn2)C(=O)N1 (stereo not drawn) [compound 36, 3-(4-{4-[4-(morpholinomethyl)benzyloxy]thiophen-3-yl}-1H-1,2,3-triazol-1-yl)piperidine-2,6-dione] | 34 | 59 % of control | 16 | 
COCc1ccc(COc2cscc2-c2cn(C3CCC(=O)NC3=O)nn2)cc1 (stereo not drawn) [compound 37, 3-(4-{4-[4-(methoxymethyl)benzyloxy]thiophen-3-yl}-1H-1,2,3-triazol-1-yl)piperidine-2,6-dione] | 71 | 99 % of control | 24 | 
C[C@@H]1CN(Cc2ccc(COc3cscc3-c3cn(C4CCC(=O)NC4=O)nn3)cc2)C[C@H](C)O1 (stereo partly drawn) [compound 38, 3-{4-[4-(4-{[(2S,6R)-2,6-dimethylmorpholino]methyl}benzyloxy)thiophen-3-yl]-1H-1,2,3-triazol-1-yl}piperidine-2,6-dione] | 29 | 110 % of control | 24 | 
O=C1CCC(n2cc(-c3cscc3OCc3cccc(CN4CCOCC4)c3)nn2)C(=O)N1 (stereo not drawn) [compound 39, 3-(4-{4-[3-(morpholinomethyl)benzyloxy]thiophen-3-yl}-1H-1,2,3-triazol-1-yl)piperidine-2,6-dione] | 69 | 98 % of control | 26 | 
O=C1CCC(n2cc(-c3cscc3OCc3ccccc3CN3CCOCC3)nn2)C(=O)N1 (stereo not drawn) [compound 40, 3-(4-{4-[2-(morpholinomethyl)benzyloxy]thiophen-3-yl}-1H-1,2,3-triazol-1-yl)piperidine-2,6-dione] | 91 | 96 % of control | 35 | 
Cl.O=C1CCC(n2cc(-c3cscc3OCc3ccc(CN4CCCC4)cc3)nn2)C(=O)N1 (stereo not drawn) [compound 41, 3-(4-{4-[4-(pyrrolidin-1-ylmethyl)benzyloxy]thiophen-3-yl}-1H-1,2,3-triazol-1-yl)piperidine-2,6-dione hydrochloride] | 72 | 110 % of control | 32 | 
